# Assay results: article PMC8180025, “Antibacterial, antifungal and antioxidant activities of whole plant chemical constituents of Rumex abyssinicus” (BMC Complementary Medicine and Therapies, 2021)
# “And” between values parts separate entries of the source, which are not always exact repeats. Identical values can stand only once. Marks after values point to notes of the source that are not given here.
# Experiments:
# [1] = test system: methicillin resistant S. aureus MRSA03; experiment: Broth microdilution MIC/MMC; conditions: for MMC/MIC / MMC: MRSA03; for MMC: sub-culturing after broth microdilution; for MIC: Staphylococcus aureus
# [2] = test system: Shigella flexneri SDINT; experiment: Broth microdilution MIC/MMC; conditions: for MMC/MIC / MMC: S. flexneri; for MMC: sub-culturing after broth microdilution; for MIC: Shigella flexneri
# [3] = test system: methicillin sensitive S. aureus MSSA01; experiment: Broth microdilution MIC/MMC; conditions: for MMC/MIC / MMC: MSSA01; for MMC: sub-culturing after broth microdilution; for MIC: Staphylococcus aureus
# [4] = test system: Pseudomonas aeruginosa ATCC27853; experiment: Broth microdilution MIC/MMC; conditions: for MMC/MIC / MMC: P. aeruginosa; for MMC: sub-culturing after broth microdilution; for MIC: Pseudomonas aeruginosa, ATCC27853
# [5] = test system: Staphylococcus aureus ATCC25923; experiment: Broth microdilution MIC/MMC; conditions: for MMC/MIC / MMC: S. aureus; for MMC: sub-culturing after broth microdilution; for MIC: Staphylococcus aureus, ATCC25923
# [6] = test system: Candida albicans ATCC10231; experiment: Broth microdilution MIC/MMC; conditions: for MMC/MIC / MMC: C. albicans; for MMC: sub-culturing after broth microdilution; for MIC: Candida albicans, ATCC10231
# [7] = test system: Cryptococcus neoformans H99; experiment: Broth microdilution MIC/MMC; conditions: for MMC/MIC / MMC: C. neoformans; for MMC: sub-culturing after broth microdilution; for MIC: Cryptococcus neoformans, H99
# [8] = DPPH free radical scavenging assay; format: biochemical; conditions: mean ± SD, triplicate
# Description: The free radical scavenging activity of extracts and compounds was evaluated according to described methods. The EC50 (μg/ml), which is the amount of sample necessary to inhibit by 50% the absorbance of free radical DPPH was calculated. Vitamin C was used as a standard control. All the analyses were carried out in triplicate.
# [9] = Gallic acid equivalent antioxidant capacity (GEAC) assay; format: biochemical; conditions: laccase/ABTS, 420 nm after 240 s; mean ± SD
# Description: The GEAC test was done as previously described with slight modifications. In a quartz cuvette, to 950 μL acetate buffer (pH =5.0, 100 mM), the following were added: 20 μL laccase (1 mM stock solution), 20 μL test sample, 10 μL ABTS (2,2′-azinobis(3-ethylbenzothiazoline-6-sulfonic acid) (74 mM stock solution). The purification of laccase from Sclerotinia sclerotiorum was done according to the protocol described. The sample concentrations in the assay mixture were 800, 400, 200, 100, 10 μg/mL for the extracts and 200, 100, 50, 25, 12.5, 6.25, 3.125, 1.56 μg/mL for the isolated compounds. The content of the generated ABTS^●+ radical was measured at 420 nm after 240 s reaction time and was converted to gallic acid equivalents by the use of a calibration curve (Pearson’s correlation coefficient: r = 0.997) constructed with 0, 4, 10, 14, 28, 56, 84 μM gallic acid standards rather than Trolox. Experiments were done in triplicate.
# [10] = test system: MSSA01; experiment: Checkerboard combination with antibiotic (FIC); format: cell-based, Staphylococcus aureus; conditions: combined with ciprofloxacin
# [11] = test system: bacterial and yeast species; experiment: Checkerboard combination with antibiotics, whole panel; format: cell-based; conditions: overall statement over the microorganisms tested
# Description: (§1) The inoculum was initially prepared as described above. The test microorganisms were inoculated into a 96-well microtitre plates and a serial dilution of two antimicrobial agents: antibiotic and MeOH extract, compound 2 or 4. Each well consisted of unique combination of test sample and antibiotic concentrations. The plates were then incubated for 24 h at 37 °C. The analyses were performed in triplicates. And the antimicrobial agents interactions were evaluated by calculating the fractional inhibitory concentration (FIC) indices. The FIC is defined as follows: MIC of antibiotic tested in combination/MIC of antibiotic tested alone + MIC of extract/compound tested in combination/MIC of extract/compound tested alone. The FIC index is interpreted as FIC ≤ 0.5: synergistic effect, 0.5 < FIC ≤1: additive effect, 1 < FIC ≤2: indifferent effect, and FIC > 2.0: antagonistic effect.
# [12] = test system: MRSA03; experiment: Checkerboard combination with antibiotic (FIC); format: cell-based, Staphylococcus aureus; conditions: combined with ciprofloxacin
# [13] = test system: C. albicans; experiment: Checkerboard combination with antibiotic (FIC); format: cell-based, Candida albicans; conditions: combined with fluconazole, checkerboard
# [14] = test system: P. aeruginosa; experiment: Checkerboard combination with antibiotic (FIC); format: cell-based, Pseudomonas aeruginosa; conditions: combined with ciprofloxacin
# [15] = test system: S. aureus; experiment: Checkerboard combination with antibiotic (FIC); format: cell-based, Staphylococcus aureus; conditions: combined with ciprofloxacin
# [16] = test system: C. neoformans; experiment: Checkerboard combination with antibiotic (FIC); format: cell-based, Cryptococcus neoformans; conditions: combined with fluconazole, checkerboard
# [17] = test system: S. flexneri; experiment: Checkerboard combination with antibiotic (FIC); format: cell-based, Shigella flexneri; conditions: combined with ciprofloxacin
# Description: as §1
smiles,measurement,setting,value
"O=C(O)c1cn(C2CC2)c2cc(N3CCNCC3)c(F)cc2c1=O [ciprofloxacin, Ciprofloxacin, reference compound]",MMC/MIC,[1],1
same,MMC,[1],4 µg/mL
same,MIC,[1],4 µg/mL
same,MMC/MIC,[2],1
same,MMC,[2],8 µg/mL
same,MIC,[2],8 µg/mL
same,MMC/MIC,[3],1
same,MMC,[3],4 µg/mL
same,MIC,[3],4 µg/mL
same,MMC/MIC,[4],1
same,MMC,[4],0.5 µg/mL
same,MIC,[4],0.5 µg/mL
same,MMC/MIC,[5],1
same,MMC,[5],0.5 µg/mL
same,MIC,[5],0.5 µg/mL
"OC(Cn1cncn1)(Cn1cncn1)c1ccc(F)cc1F [fluconazole, reference compound]",MMC/MIC,[6],1
same,MMC,[6],1 µg/mL
same,MIC,[6],1 µg/mL
same,MMC/MIC,[7],1
same,MMC,[7],2 µg/mL
same,MIC,[7],2 µg/mL
"Cc1cc(O)c2c(c1)C(=O)c1cccc(O)c1C2=O [Compound 1, Chrysophanol]",MMC/MIC,[1],2
same,MMC,[1],128 µg/mL
same,MIC,[1],64 µg/mL
same,MMC/MIC,[2],1
same,MMC,[2],32 µg/mL
same,MIC,[2],32 µg/mL
same,DPPH free radical scavenging activity (EC50),[8],4.52 ± 0.36^d μg/mL
same,MMC/MIC,[3],1
same,MMC,[3],64 µg/mL
same,MIC,[3],64 µg/mL
same,MMC/MIC,[6],1
same,MMC,[6],64 µg/mL
same,MIC,[6],64 µg/mL
same,Gallic acid equivalent antioxidant capacity (GEAC),[9],104.87 ± 1.43^d μg/mL
same,MMC/MIC,[4],2
same,MMC,[4],128 µg/mL
same,MIC,[4],64 µg/mL
same,MMC/MIC,[5],2
same,MMC,[5],64 µg/mL
same,MIC,[5],32 µg/mL
same,MMC/MIC,[7],1
same,MMC,[7],32 µg/mL
same,MIC,[7],32 µg/mL
"O=C1O[C@H]([C@@H](O)CO)C(O)=C1O [Vitamin C, reference compound]",DPPH free radical scavenging activity (EC50),[8],1.81 ± 0.19^h μg/mL
"CC(C)[C@@H](C)C=C[C@@H](C)[C@H]1CC[C@H]2[C@]3(O)C=CC4(O)CC(O)CC[C@]4(C)[C@H]3CC[C@]12C (stereo partly shown) [Compound 3, Ergosta-6,22-diene-3,5,8-triol]",MMC,[1],>256 µg/mL
same,MIC,[1],> 256 µg/mL
same,MMC,[2],>256 µg/mL
same,MIC,[2],128 µg/mL
same,MMC,[3],>256 µg/mL
same,MIC,[3],> 256 µg/mL
same,MMC,[6],>256 µg/mL
same,MIC,[6],128 µg/mL
same,MMC/MIC,[4],2
same,MMC,[4],256 µg/mL
same,MIC,[4],128 µg/mL
same,MMC,[5],>256 µg/mL
same,MIC,[5],256 µg/mL
same,MMC/MIC,[7],2
same,MMC,[7],128 µg/mL
same,MIC,[7],64 µg/mL
"O=C1c2cc(O)cc(O)c2C(=O)c2c(O)cc(CO)cc21 [Compound 5, 6-hydroxyemodin (Citreorosein)]",MMC/MIC,[1],2
same,MMC,[1],256 µg/mL
same,MIC,[1],128 µg/mL
same,MMC/MIC,[2],1
same,MMC,[2],32 µg/mL
same,MIC,[2],32 µg/mL
same,DPPH free radical scavenging activity (EC50),[8],9.88 ± 0.62^f μg/mL
same,MMC/MIC,[3],2
same,MMC,[3],256 µg/mL
same,MIC,[3],128 µg/mL
same,MMC/MIC,[6],2
same,MMC,[6],32 µg/mL
same,MIC,[6],16 µg/mL
same,Gallic acid equivalent antioxidant capacity (GEAC),[9],81.09 ± 0.93 μg/mL and 81.09 ± 0.93^e μg/mL
same,MMC/MIC,[4],2
same,MMC,[4],64 µg/mL
same,MIC,[4],32 µg/mL
same,MMC/MIC,[5],1
same,MMC,[5],32 µg/mL
same,MIC,[5],32 µg/mL
same,MMC/MIC,[7],2
same,MMC,[7],32 µg/mL
same,MIC,[7],16 µg/mL
"Cc1cc(O)c2c(c1)C(=O)c1cc(O)cc(O)c1C2=O [Compound 4, Emodin]",FIC (fractional inhibitory concentration index),[10],0.5
same,FICEx / FIC2 / FIC5 (MIC of extract/compound tested in combination/MIC of extract/compound tested alone),[10],0.25
same,FICA (MIC of antibiotic tested in combination/MIC of antibiotic tested alone),[10]; 24 h at 37 °C,0.25
same,effect of the association with ciprofloxacin (bacteria) / fluconazole (yeasts),[11],synergistic
same,MMC/MIC,[1],1
same,MMC,[1],32 µg/mL
same,MIC,[1],32 µg/mL
same,FIC (fractional inhibitory concentration index),[12],0.375
same,FICEx / FIC2 / FIC5 (MIC of extract/compound tested in combination/MIC of extract/compound tested alone),[12],0.125
same,FICA (MIC of antibiotic tested in combination/MIC of antibiotic tested alone),[12]; 24 h at 37 °C,0.25
same,MMC/MIC,[2],2
same,MMC,[2],16 µg/mL
same,MIC,[2],8 µg/mL
same,DPPH free radical scavenging activity (EC50),[8],10.69 ± 0.51^f μg/mL
same,MMC/MIC,[3],1
same,MMC,[3],32 µg/mL
same,MIC,[3],32 µg/mL
same,MMC/MIC,[6],1
same,MMC,[6],8 µg/mL
same,MIC,[6],8 µg/mL
same,Gallic acid equivalent antioxidant capacity (GEAC),[9],79.54 ± 1.26 μg/mL and 79.54 ± 1.26^e μg/mL
same,MMC/MIC,[4],1
same,MMC,[4],16 µg/mL
same,MIC,[4],16 µg/mL
same,MMC/MIC,[5],1
same,MMC,[5],8 µg/mL
same,MIC,[5],8 µg/mL
same,FIC (fractional inhibitory concentration index),[13],0.75
same,FICEx / FIC2 / FIC5 (MIC of extract/compound tested in combination/MIC of extract/compound tested alone),[13],0.5
same,FICA (MIC of antibiotic tested in combination/MIC of antibiotic tested alone),[13]; 24 h at 37 °C,0.25
same,Interpretation (of FIC index),[14],Synergistic (FIC ≤ 0.5: synergistic effect)
same,FICEx / FIC2 / FIC5 (MIC of extract/compound tested in combination/MIC of extract/compound tested alone),[14]; checkerboard,0.125
same,Interpretation (of FIC index),[15],Additive (0.5 < FIC ≤1: additive effect)
same,FIC (fractional inhibitory concentration index),[15]; checkerboard,0.625
same,FICEx / FIC2 / FIC5 (MIC of extract/compound tested in combination/MIC of extract/compound tested alone),[15]; checkerboard,0.125
same,FICA (MIC of antibiotic tested in combination/MIC of antibiotic tested alone),"[15]; checkerboard, 24 h at 37 °C",0.5
same,MMC/MIC,[7],1
same,MMC,[7],8 µg/mL
same,MIC,[7],8 µg/mL
same,FIC (fractional inhibitory concentration index),[16],0.75
same,FICEx / FIC2 / FIC5 (MIC of extract/compound tested in combination/MIC of extract/compound tested alone),[16],0.5
same,FICA (MIC of antibiotic tested in combination/MIC of antibiotic tested alone),[16]; 24 h at 37 °C,0.25
same,Interpretation (of FIC index),[17],Synergistic (FIC ≤ 0.5: synergistic effect)
same,FIC (fractional inhibitory concentration index),[17]; checkerboard,0.31
same,FICEx / FIC2 / FIC5 (MIC of extract/compound tested in combination/MIC of extract/compound tested alone),[17]; checkerboard,0.25
same,FICA (MIC of antibiotic tested in combination/MIC of antibiotic tested alone),"[17]; checkerboard, 24 h at 37 °C",0.0625
